According to PubChem BioAssay AID330 (DTP/NCI, 2004):
“And” between values parts separate entries of the source, which are not always exact repeats. Identical values can stand only once. Toxic doses and inconclusive results are not listed.

System: P388 leukemia ip, CD2F1 mice, survival T/C
Assay: NCI In Vivo Anticancer Drug Screen. Data for tumor model P388 Leukemia (intraperitoneal) in CD2F1 (CDF1) mice
Settings: endpoint: median survival time, higher = longer survival
In short: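 Mice carrying the transplanted tumor received test compound or vehicle. Survival was recorded in each group, and the value is the treated-group measurement divided by that of the vehicle-treated control group.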

[1] = dose: 100.0 mg/kg/injection, schedule: Q01DX001 (ip), vehicle: saline with Tween-80
[2] = dose: 200.0 mg/kg/injection, schedule: Q01DX001 (ip), vehicle: saline with Tween-80
[3] = dose: 50.0 mg/kg/injection, schedule: Q01DX005 (ip), vehicle: Klucel (hydroxypropylcellulose) (HPC)
[4] = dose: 100.0 mg/kg/injection, schedule: Q01DX005 (ip), vehicle: Klucel (hydroxypropylcellulose) (HPC)
[5] = dose: 200.0 mg/kg/injection, schedule: Q01DX005 (ip), vehicle: Klucel (hydroxypropylcellulose) (HPC)
[6] = dose: 50.0 mg/kg/injection, schedule: Q01DX009 (ip), vehicle: Klucel (hydroxypropylcellulose) (HPC)
[7] = dose: 100.0 mg/kg/injection, schedule: Q01DX009 (ip), vehicle: Klucel (hydroxypropylcellulose) (HPC)
[8] = dose: 100.0 mg/kg/injection, schedule: Q04DX003 (ip), vehicle: saline with Tween-80
[9] = dose: 200.0 mg/kg/injection, schedule: Q04DX003 (ip), vehicle: saline with Tween-80
[10] = dose: 50.0 mg/kg/injection, schedule: Q01DX005 (ip), vehicle: saline with Tween-80
[11] = dose: 100.0 mg/kg/injection, schedule: Q01DX005 (ip), vehicle: saline with Tween-80
[12] = dose: 200.0 mg/kg/injection, schedule: Q01DX005 (ip), vehicle: saline with Tween-80
[13] = dose: 50.0 mg/kg/injection, schedule: Q01DX009 (ip), vehicle: saline with Tween-80
[14] = dose: 100.0 mg/kg/injection, schedule: Q01DX009 (ip), vehicle: saline with Tween-80
[15] = dose: 12.5 mg/kg/injection, schedule: Q01DX005 (ip), vehicle: saline with Tween-80
[16] = dose: 60.0 mg/kg/injection, schedule: Q01DX005 (ip), vehicle: saline with Tween-80
[17] = dose: 120.0 mg/kg/injection, schedule: Q01DX005 (ip), vehicle: saline with Tween-80
[18] = dose: 240.0 mg/kg/injection, schedule: Q01DX005 (ip), vehicle: saline with Tween-80

In the case of CCOC(=O)Nc1cc(NCC(=O)c2ccc(Cl)cc2)c([N+](=O)[O-])c(N)n1, the T/C (dose: 50.0 mg/kg/injection, schedule: Q01DX001 (ip), vehicle: saline with Tween-80) was 92 % of control, the T/C [1] was 90 % of control and the T/C [2] was 88 % of control.

In the case of CN(C)CCCN(c1ccccc1)c1ccccc1, the T/C [3] was 98 % of control, the T/C [4] was 98 % of control and the T/C [5] was 98 % of control.

With CC1=CC(=C2C(=O)c3ccccc3C2=O)N(CCN2CCCCC2)C=C1 the T/C [3] was 93 % of control, the T/C [4] was 102 % of control and the T/C [5] was 93 % of control.

In the case of COc1cc2c(c(OC)c1OC)-c1ccc(OC)c(=O)cc1[C@@H](N(C)C(C)=O)CC2, the T/C (dose: 0.31 mg/kg/injection, schedule: Q01DX009 (ip), vehicle: Klucel (hydroxypropylcellulose) (HPC)) was 157 % of control and 187 % of control and the T/C (dose: 0.62 mg/kg/injection, schedule: Q01DX009 (ip), vehicle: Klucel (hydroxypropylcellulose) (HPC)) was 181 % of control.

For O=C1C=CC(=O)N1c1ccc(O)cc1, the T/C (dose: 1.25 mg/kg/injection, schedule: Q01DX009 (ip), vehicle: saline sonified) was 95 % of control and the T/C (dose: 2.5 mg/kg/injection, schedule: Q01DX009 (ip), vehicle: saline sonified) was 95 % of control.

CC(=O)Oc1c(C)c2c(O)c3c1C1=C(OCOC1=C(C)C3=O)C(C)=CC(C)(O)C(O)C(C)C(O)C1C(=O)OC(C(C)/C=C\C=C(C)C(=O)N2)C(C)C1O (stereo not drawn) was tested, and the T/C [3] was 108 % of control, the T/C [6] was 99 % of control and the T/C [4] was 108 % of control. For the same compound, the T/C [7] was 100 % of control, the T/C [5] was 108 % of control and the T/C (dose: 200.0 mg/kg/injection, schedule: Q01DX009 (ip), vehicle: Klucel (hydroxypropylcellulose) (HPC)) was 104 % of control. For the same compound, the T/C (dose: 400.0 mg/kg/injection, schedule: Q01DX009 (ip), vehicle: Klucel (hydroxypropylcellulose) (HPC)) was 103 % of control.

For CC(C)CCC(C)C1CCC2C3CC([N+](=O)[O-])=C4CC(OC(=O)c5ccccc5)CCC4(C)C3CCC12C (stereo not drawn), the T/C [8] was 90 % of control, the T/C [9] was 90 % of control and the T/C (dose: 400.0 mg/kg/injection, schedule: Q04DX003 (ip), vehicle: saline with Tween-80) was 90 % of control.

COC1=CC(=O)C(C(C)=O)=C(C2(C)C(=O)CCCC2=O)C1=O was tested, and the T/C [10] was 106 % of control, the T/C [11] was 89 % of control and the T/C [12] was 104 % of control.

For CC(=O)[C@@H]1C[C@H]1C(=O)c1ccccc1, the T/C (dose: 67.5 mg/kg/injection, schedule: Q04DX002 (ip), vehicle: Klucel (hydroxypropylcellulose) (HPC)) was 96 % of control, the T/C (dose: 135.0 mg/kg/injection, schedule: Q04DX002 (ip), vehicle: Klucel (hydroxypropylcellulose) (HPC)) was 94 % of control and the T/C (dose: 270.0 mg/kg/injection, schedule: Q04DX002 (ip), vehicle: Klucel (hydroxypropylcellulose) (HPC)) was 96 % of control.

For CCN(CC)CCOC(=O)c1cc2cc3cc(C(=O)OCCN(CC)CC)c(=O)oc3c(C)c2oc1=O, the T/C (dose: 50.0 mg/kg/injection, schedule: Q01DX005 (ip), vehicle: saline) was 113 % of control, the T/C (dose: 100.0 mg/kg/injection, schedule: Q01DX005 (ip), vehicle: saline) was 114 % of control and the T/C (dose: 200.0 mg/kg/injection, schedule: Q01DX005 (ip), vehicle: saline) was 107 % of control.

With COc1ccc(C(O)(CS(C)=O)c2cccs2)cc1 (stereo not drawn) the T/C (dose: 12.5 mg/kg/injection, schedule: Q01DX009 (ip), vehicle: saline with Tween-80) was 94 % of control and 97 % of control, the T/C (dose: 25.0 mg/kg/injection, schedule: Q01DX009 (ip), vehicle: saline with Tween-80) was 100 % of control and 102 % of control and the T/C [13] was 110 % of control and 96 % of control. For the same compound, the T/C [14] was 91 % of control and 96 % of control.

With CCOC(=O)CNC(=O)NC(Cc1ccccc1)C(=O)OCC (stereo not drawn) the T/C [10] was 107 % of control and the T/C [11] was 97 % of control.

For O=C(NCCc1ccccc1Br)c1ccccc1, the T/C [3] was 100 % of control, the T/C [4] was 97 % of control and the T/C [5] was 93 % of control.

For N#C/C(=C\c1ccc(Cl)cc1)c1ccccc1, the T/C [13] was 96 % of control, the T/C (dose: 50.0 mg/kg/injection, schedule: Q01DX009 (ip), vehicle: saline) was 100 % of control and the T/C [14] was 95 % of control. For the same compound, the T/C (dose: 100.0 mg/kg/injection, schedule: Q01DX009 (ip), vehicle: saline) was 98 % of control and 96 % of control, the T/C (dose: 200.0 mg/kg/injection, schedule: Q01DX009 (ip), vehicle: saline with Tween-80) was 98 % of control and the T/C (dose: 200.0 mg/kg/injection, schedule: Q01DX009 (ip), vehicle: saline) was 99 % of control and 92 % of control. For the same compound, the T/C (dose: 400.0 mg/kg/injection, schedule: Q01DX009 (ip), vehicle: saline with Tween-80) was 100 % of control and the T/C (dose: 400.0 mg/kg/injection, schedule: Q01DX009 (ip), vehicle: saline) was 90 % of control and 91 % of control.

CCOC(=O)C1=C(C)NC(C)=C(C(=O)OCC)C1(C)C was tested, and the T/C [10] was 104 % of control, the T/C [11] was 100 % of control and the T/C [12] was 100 % of control.

C=C1CCC2C(c3c(C)c(O)c4c(c31)C(=O)C(C)C4)C2(C)C (stereo not drawn) was tested, and the T/C (dose: 3.0 mg/kg/injection, schedule: Q01DX009 (ip), vehicle: Klucel (hydroxypropylcellulose) (HPC)) was 110 % of control, the T/C (dose: 6.0 mg/kg/injection, schedule: Q01DX009 (ip), vehicle: Klucel (hydroxypropylcellulose) (HPC)) was 108 % of control and the T/C (dose: 12.0 mg/kg/injection, schedule: Q01DX009 (ip), vehicle: Klucel (hydroxypropylcellulose) (HPC)) was 103 % of control. For the same compound, the T/C (dose: 24.0 mg/kg/injection, schedule: Q01DX009 (ip), vehicle: Klucel (hydroxypropylcellulose) (HPC)) was 108 % of control.

For C=C(C)c1c2c(SC)ccc(SC)c2cc2c(SC)ccc(SC)c12, the T/C [1] was 96 % of control, the T/C [2] was 98 % of control and the T/C (dose: 400.0 mg/kg/injection, schedule: Q01DX001 (ip), vehicle: saline with Tween-80) was 95 % of control.

With CC1(C)C(c2ccccc2)C1(Cl)Cl (stereo not drawn) the T/C (dose: 100.0 mg/kg/injection, schedule: Q04DX002 (ip), vehicle: saline with Tween-80) was 99 % of control and the T/C (dose: 200.0 mg/kg/injection, schedule: Q04DX002 (ip), vehicle: saline with Tween-80) was 93 % of control.

With CCCCCN(CCCCC)CC(O)c1c(Cl)ccc2ccccc12 (stereo not drawn) the T/C [15] was 106 % of control, the T/C (dose: 25.0 mg/kg/injection, schedule: Q01DX005 (ip), vehicle: saline with Tween-80) was 103 % of control and the T/C [10] was 103 % of control and 97 % of control. For the same compound, the T/C [11] was 106 % of control and the T/C [12] was 112 % of control.

With CCC1COS(=O)(=O)CS(=O)(=O)O1 (stereo not drawn) the T/C [16] was 101 % of control, the T/C [17] was 100 % of control and the T/C [18] was 105 % of control.

For COc1ccccc1C1NC(c2ccccc2OC)C2CCCC1NC2=O (stereo not drawn), the T/C (dose: 100.0 mg/kg/injection, schedule: Q04DX003 (ip), vehicle: suspension in saline) was 98 % of control, the T/C (dose: 200.0 mg/kg/injection, schedule: Q04DX003 (ip), vehicle: suspension in saline) was 98 % of control and the T/C (dose: 400.0 mg/kg/injection, schedule: Q04DX003 (ip), vehicle: suspension in saline) was 98 % of control.

C[C@]12CCCC[C@@H]1CC[C@@H]1[C@@H]2[C@@H](O)C[C@]2(C)[C@@H](O)CC[C@@H]12 was tested, and the T/C [8] was 91 % of control and the T/C [9] was 100 % of control.

Cc1cc(C)nc(/C=C/c2ccccc2)c1 was tested, and the T/C [16] was 104 % of control, the T/C [17] was 105 % of control and the T/C [18] was 106 % of control.

N=c1nc(N)ncn1-c1ccccc1 was tested, and the T/C (dose: 1.56 mg/kg/injection, schedule: Q01DX005 (ip), vehicle: saline with Tween-80) was 99 % of control and 102 % of control, the T/C (dose: 3.13 mg/kg/injection, schedule: Q01DX005 (ip), vehicle: saline with Tween-80) was 103 % of control and 104 % of control and the T/C (dose: 6.25 mg/kg/injection, schedule: Q01DX005 (ip), vehicle: saline with Tween-80) was 99 % of control and 102 % of control. The T/C [15] was 102 % of control and 104 % of control and 108 % of control.

With CC(=O)O[C@H]1[C@H]2O[C@]23[C@@H]2CC[C@]4(O)C[C@@H](O)CC[C@]4(C)[C@H]2CC[C@]3(C)[C@H]1c1ccc(=O)oc1 the T/C (dose: 12.5 mg/kg/injection, schedule: Q01DX009 (ip), vehicle: Klucel (hydroxypropylcellulose) (HPC)) was 114 % of control, the T/C (dose: 25.0 mg/kg/injection, schedule: Q01DX009 (ip), vehicle: Klucel (hydroxypropylcellulose) (HPC)) was 105 % of control and the T/C [6] was 105 % of control. The T/C [7] was 120 % of control.

COc1cccc(N2CC3CC4C=CC3(C2)O4)c1 (stereo not drawn) was tested, and the T/C (dose: 60.0 mg/kg/injection, schedule: Q01DX005 (ip), vehicle: Klucel (hydroxypropylcellulose) (HPC)) was 98 % of control, the T/C (dose: 120.0 mg/kg/injection, schedule: Q01DX005 (ip), vehicle: Klucel (hydroxypropylcellulose) (HPC)) was 100 % of control and the T/C (dose: 240.0 mg/kg/injection, schedule: Q01DX005 (ip), vehicle: Klucel (hydroxypropylcellulose) (HPC)) was 97 % of control.
